Legend:
[1] = test system: hepatocellular carcinoma (HepG-2); experiment: In vitro cytotoxic assay; format: cell-based, human; details: for IC50: Homo sapiens, HepG2, 48 h, read-out: IC50 (mean ± SEM) HepG-2; for SI (selectivity index) HepG-2: normal PBMC vs HepG-2
[2] = test system: p53 ubiquitination; experiment: In vivo p53 ubiquitination inhibition of MCF-7 cells; format: cell-based; details: Homo sapiens, MCF7, 6 h, read-out: IC50 (mean ± SEM) p53 ubiquitination
[3] = biological target: EGFR^T790M (Homo sapiens, UniProt P00533, T790M); experiment: HTRF kinase inhibition assay, EGFR^T790M
[4] = test system: non-small cell lung cancer cells (A-549); experiment: In vitro cytotoxic assay; format: cell-based, human; details: for IC50: Homo sapiens, A549, 48 h, read-out: IC50 (mean ± SEM) A-549; for SI (selectivity index) A-549: normal PBMC vs A-549
[5] = biological target: EGFR^WT (Homo sapiens, UniProt P00533); experiment: HTRF kinase inhibition assay, EGFR^WT
[6] = In vitro cytotoxic assay; format: cell-based; details: normal peripheral blood mononuclear cells (PBMCs)
[7] = test system: breast adenocarcinoma (MCF-7); experiment: In vitro cytotoxic assay; format: cell-based, human; details: for IC50: Homo sapiens, MCF7, 48 h, read-out: IC50 (mean ± SEM) MCF-7; for SI (selectivity index) MCF-7: normal PBMC vs MCF-7
[8] = test system: prostate carcinoma (PC-3); experiment: In vitro cytotoxic assay; format: cell-based, human; details: for IC50: Homo sapiens, 48 h, read-out: IC50 (mean ± SEM) PC-3; for SI (selectivity index) PC-3: normal PBMC vs PC-3

Sequence of EGFR^T790M (P00533 25-1210 T790M): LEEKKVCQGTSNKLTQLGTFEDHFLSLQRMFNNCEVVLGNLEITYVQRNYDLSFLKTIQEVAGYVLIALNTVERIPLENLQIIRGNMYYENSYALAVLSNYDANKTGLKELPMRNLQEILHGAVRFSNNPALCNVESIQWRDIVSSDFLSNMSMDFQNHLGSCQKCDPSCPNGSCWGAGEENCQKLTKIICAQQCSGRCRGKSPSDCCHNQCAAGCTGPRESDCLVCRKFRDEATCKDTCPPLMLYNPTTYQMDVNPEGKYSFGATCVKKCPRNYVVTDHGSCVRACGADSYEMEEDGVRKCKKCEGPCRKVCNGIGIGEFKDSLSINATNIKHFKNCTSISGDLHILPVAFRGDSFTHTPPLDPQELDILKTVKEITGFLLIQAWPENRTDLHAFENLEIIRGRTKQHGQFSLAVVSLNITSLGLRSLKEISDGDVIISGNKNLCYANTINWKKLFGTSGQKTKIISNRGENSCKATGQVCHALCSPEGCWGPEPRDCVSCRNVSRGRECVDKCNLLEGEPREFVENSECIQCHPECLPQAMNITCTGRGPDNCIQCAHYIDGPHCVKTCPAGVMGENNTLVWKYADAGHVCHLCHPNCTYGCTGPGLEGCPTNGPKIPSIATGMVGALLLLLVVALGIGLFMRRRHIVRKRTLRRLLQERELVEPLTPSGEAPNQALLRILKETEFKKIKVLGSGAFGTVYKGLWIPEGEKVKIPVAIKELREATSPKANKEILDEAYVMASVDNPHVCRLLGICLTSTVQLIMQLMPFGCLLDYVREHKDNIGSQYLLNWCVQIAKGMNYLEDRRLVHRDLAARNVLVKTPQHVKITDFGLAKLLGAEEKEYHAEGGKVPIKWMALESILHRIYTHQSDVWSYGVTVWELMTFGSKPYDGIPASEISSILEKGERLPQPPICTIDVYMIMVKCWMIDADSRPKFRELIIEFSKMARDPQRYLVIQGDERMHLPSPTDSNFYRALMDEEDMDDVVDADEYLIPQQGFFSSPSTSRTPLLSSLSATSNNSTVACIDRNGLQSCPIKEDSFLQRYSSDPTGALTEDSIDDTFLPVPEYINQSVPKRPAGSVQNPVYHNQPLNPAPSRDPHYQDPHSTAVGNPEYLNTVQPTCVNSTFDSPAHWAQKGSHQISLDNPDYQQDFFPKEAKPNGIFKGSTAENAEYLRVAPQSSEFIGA
Sequence of EGFR^WT (P00533 25-1210): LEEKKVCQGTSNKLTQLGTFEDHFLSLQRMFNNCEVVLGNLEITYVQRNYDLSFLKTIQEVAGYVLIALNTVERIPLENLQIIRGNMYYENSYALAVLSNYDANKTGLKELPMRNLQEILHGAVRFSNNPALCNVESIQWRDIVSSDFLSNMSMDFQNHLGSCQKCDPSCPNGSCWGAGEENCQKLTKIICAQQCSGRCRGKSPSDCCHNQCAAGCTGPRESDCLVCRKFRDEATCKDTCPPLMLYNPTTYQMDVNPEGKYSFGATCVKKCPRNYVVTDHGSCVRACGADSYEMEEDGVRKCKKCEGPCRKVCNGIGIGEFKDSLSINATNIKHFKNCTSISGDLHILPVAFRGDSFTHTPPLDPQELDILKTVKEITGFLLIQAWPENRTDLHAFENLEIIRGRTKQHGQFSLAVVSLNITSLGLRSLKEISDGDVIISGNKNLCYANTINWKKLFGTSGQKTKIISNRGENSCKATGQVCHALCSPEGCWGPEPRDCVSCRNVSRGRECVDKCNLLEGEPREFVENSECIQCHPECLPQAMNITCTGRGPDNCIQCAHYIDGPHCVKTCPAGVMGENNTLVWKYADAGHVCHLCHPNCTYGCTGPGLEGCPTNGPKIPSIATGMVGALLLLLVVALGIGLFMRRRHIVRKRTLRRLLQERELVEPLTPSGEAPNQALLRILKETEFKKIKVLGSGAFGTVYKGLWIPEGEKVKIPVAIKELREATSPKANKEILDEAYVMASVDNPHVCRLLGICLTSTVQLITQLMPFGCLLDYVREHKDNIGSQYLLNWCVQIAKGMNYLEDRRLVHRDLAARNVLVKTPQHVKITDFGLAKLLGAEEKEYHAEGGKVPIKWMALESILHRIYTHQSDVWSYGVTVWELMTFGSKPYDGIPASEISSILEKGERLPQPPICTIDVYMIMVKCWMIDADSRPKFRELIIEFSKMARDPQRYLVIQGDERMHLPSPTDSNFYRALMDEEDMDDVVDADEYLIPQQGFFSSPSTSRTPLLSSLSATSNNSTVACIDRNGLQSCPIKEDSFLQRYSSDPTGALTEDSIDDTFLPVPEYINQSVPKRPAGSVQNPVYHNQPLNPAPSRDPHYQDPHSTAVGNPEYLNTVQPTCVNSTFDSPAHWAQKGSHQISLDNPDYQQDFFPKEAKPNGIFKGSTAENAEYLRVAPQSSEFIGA

Row | Structure (SMILES) | IC50 [1] [µM] | SI (selectivity index) HepG-2 [1] | IC50 [2] [µM] | IC50 [3] [µM] | IC50 [4] [µM] | SI (selectivity index) A-549 [4] | IC50 [5] [µM] | IC50 at 48 h [6] [µM] | IC50 [7] [µM] | SI (selectivity index) MCF-7 [7] | IC50 [8] [µM] | SI (selectivity index) PC-3 [8] | folds more potent than doxorubicin ([4]; A-549 cell line) [folds] | fold more potent EGFR^WT inhibitor than erlotinib ([5]; EGFR^WT) [fold] | folds more potent than doxorubicin and erlotinib ([7]; MCF-7 cells) [folds] | folds less potency compared to erlotinib ([4]; A-549) [folds]
1 | c1ccc(Cc2nnc(Nc3nccs3)[nH]2)cc1 [Compound 5b, N-(5-Benzyl-4H-1,2,4-triazol-3-yl)thiazol-2-amine] | 38.49 ± 0.02 | SI = 4.30 | 0.00062 ± 5e-05 | 0.13 ± 0.11 | 8.27 ± 0.03 | SI = 20.04 | 0.22 ± 0.15 | 166 ± 17.4 | 4.18 ± 0.03 | SI = 39.65 | 18.22 ± 0.03 | SI = 9.09 | – | – | – | –
2 | Nc1ccccc1NC(=S)NC(=O)Cc1ccccc1 [Compound 2c, N-((2-Aminophenyl)carbamothioyl)-2-phenylacetamide] | 47.66 ± 0.04 | – | – | – | 27.81 ± 0.04 | – | – | 145 ± 14.9 | 21.76 ± 0.08 | – | 25.44 ± 0.04 | – | – | – | – | –
3 | O=[N+]([O-])c1ccc(N=c2nc(Cc3ccccc3)[nH]c(=S)[nH]2)c(Cl)c1 [Compound 8d, 6-Benzyl-4-((2-chloro-4-nitrophenyl)imino)-3,4-dihydro-1,3,5-triazine-2(1H)-thione] | 47.86 ± 0.05 | SI = 3.74 | – | – | 9.5 ± 0.06 | SI = 18.85 | – | 179 ± 19 | 14.77 ± 0.05 | SI = 12.12 | 39.55 ± 0.08 | SI = 4.52 | – | – | – | –
4 | CC(C)NC(=S)NC(=O)Cc1ccccc1 [Compound 2a, N-(Isopropylcarbamothioyl)-2-phenylacetamide] | 57.85 ± 0.07 | – | – | – | 34.57 ± 0.06 | – | – | 121 ± 11.3 | 37.73 ± 0.08 | – | 26.8 ± 2.21 | – | – | – | – | –
5 | Oc1cccc(Nc2nc(Cc3ccccc3)nn2-c2ccccc2)c1 [Compound 6b, 3-((3-Benzyl-1-phenyl-1H-1,2,4-triazol-5-yl)amino)phenol] | 5.47 ± 0.02 | SI = 32.58 | 0.0005 ± 5e-05 | 0.09 ± 0.01 | 3.18 ± 0.03 | SI = 56.04 | 0.08 ± 0.05 | 178 ± 17.7 | 1.29 ± 0.03 | SI = 138.16 | 13.21 ± 0.06 | SI = 13.49 | 2.6 | 1 | 3.2 | –
6 | CC(C)Nc1nnc(Cc2ccccc2)[nH]1 [Compound 5a, 5-Benzyl-N-isopropyl-4H-1,2,4-triazol-3-amine] | 35.66 ± 0.04 | SI = 4.90 | 0.00068 ± 1e-05 | 0.17 ± 0.05 | 10.37 ± 0.04 | SI = 16.86 | 0.25 ± 0.01 | 175 ± 18.2 | 5.42 ± 0.05 | SI = 32.26 | 16.49 ± 0.05 | SI = 10.60 | – | – | – | –
7 | Oc1cccc(N=c2nc(Cc3ccccc3)[nH]c(=S)[nH]2)c1 [Compound 8c, 6-Benzyl-4-((3-hydroxyphenyl)imino)-3,4-dihydro-1,3,5-triazine-2(1H)-thione] | 45.49 ± 0.04 | SI = 4.15 | – | – | 8.29 ± 0.03 | SI = 22.78 | – | 189 ± 19.9 | 10.31 ± 0.04 | SI = 18.32 | 32.48 ± 0.04 | SI = 5.81 | – | – | – | –
8 | C#Cc1cccc(Nc2ncnc3cc(OCCOC)c(OCCOC)cc23)c1 [erlotinib, reference compound] | – | – | – | – | 3.76 ± 0.2 | – | – | 45.8 ± 26.6 | – | – | 8.89 ± 0.6 | – | – | – | – | –
9 | O=C(Cc1ccccc1)Nc1nc2ccccc2[nH]1 [Compound 3, N-(1H-Benzo[d]imidazol-2-yl)-2-phenylacetamide] | 37.73 ± 0.02 | – | – | – | 10.42 ± 0.05 | – | – | 179 ± 18.8 | 6.59 ± 0.07 | – | 17.29 ± 0.03 | – | – | – | – | –
10 | COc1cccc2c1C(=O)c1c(O)c3c(c(O)c1C2=O)C[C@@](O)(C(=O)CO)C[C@@H]3O[C@H]1C[C@H](N)[C@H](O)[C@H](C)O1 [DOX, doxorubicin, reference compound] | 4.51 ± 0.26 | – | – | – | 8.2 ± 0.08 | – | – | 250 ± 26.6 | – | – | 8.11 ± 0.05 | – | – | – | – | –
11 | S=c1[nH]c(Cc2ccccc2)nc(=Nc2nccs2)[nH]1 [Compound 8b, 6-Benzyl-4-(thiazol-2-ylimino)-3,4-dihydro-1,3,5-triazine-2(1H)-thione] | 60.48 ± 0.05 | SI = 3.25 | – | – | 37.21 ± 0.03 | SI = 5.28 | – | 197 ± 20.7 | 17.95 ± 0.04 | SI = 10.95 | 42.56 ± 0.06 | SI = 4.62 | – | – | – | –
12 | CC(C)N=c1nc(Cc2ccccc2)[nH]c(=S)[nH]1 [Compound 8a, 6-Benzyl-4-(isopropylimino)-3,4-dihydro-1,3,5-triazine-2(1H)-thione] | 59.84 ± 0.05 | SI = 2.91 | – | – | 25.46 ± 0.05 | SI = 6.81 | – | 173 ± 18.9 | 13.75 ± 0.08 | SI = 12.61 | 36.55 ± 0.03 | SI = 4.74 | – | – | – | –
13 | O=C(Cc1ccccc1)NC(=S)Nc1ccc([N+](=O)[O-])cc1Cl [Compound 2e, N-((2-Chloro-4-nitrophenyl)carbamothioyl)-2-phenylacetamide] | 37.76 ± 0.05 | – | – | – | 25.96 ± 0.05 | – | – | 169 ± 17.4 | 25.64 ± 0.08 | – | 40.56 ± 0.05 | – | – | – | – | –
14 | O=c1nc(Cc2ccccc2)[nH]c(Nc2nccs2)n1 [Compound 7, 4-Benzyl-6-(thiazol-2-ylamino)-1,3,5-triazin-2(5H)-one] | 29.75 ± 0.03 | – | – | 0.18 ± 0.11 | 7.43 ± 0.04 | – | 0.22 ± 0.05 | 165 ± 18.1 | 4.65 ± 0.07 | – | 17.9 ± 0.03 | – | – | – | – | ~2
15 | c1ccc(Cc2nc(Nc3nccs3)n(-c3ccccc3)n2)cc1 [Compound 6a, N-(3-Benzyl-1-phenyl-1H-1,2,4-triazol-5-yl)thiazol-2-amine] | 10.48 ± 0.03 | SI = 15.02 | – | 0.12 ± 0.18 | 5.2 ± 0.03 | SI = 30.27 | 0.18 ± 0.1 | 157 ± 16.9 | 4.3 ± 0.04 | SI = 36.61 | 16.3 ± 0.09 | SI = 9.65 | – | – | – | –
16 | Oc1cccc(Nc2nnc(Cc3ccccc3)[nH]2)c1 [Compound 5c, 3-((5-Benzyl-4H-1,2,4-triazol-3-yl)amino)phenol] | 27.59 ± 0.04 | SI = 5.23 | – | 0.14 | 12.3 ± 0.04 | SI = 11.89 | 0.24 ± 0.3 | 146 ± 16.1 | 4.33 ± 0.04 | SI = 33.79 | 18.44 ± 0.04 | SI = 7.93 | – | – | – | –
17 | O=C(Cc1ccccc1)NC(=S)Nc1cccc(O)c1 [Compound 2d, N-((3-Hydroxyphenyl)carbamothioyl)-2-phenylacetamide] | 34.77 ± 0.03 | – | – | – | 20.84 ± 0.04 | – | – | 158 ± 16.4 | 24.74 ± 0.08 | – | 39.3 | – | – | – | – | –

Reference: paper PMC8892849 (ACS Omega, 2022)
